Experimental data from ChEMBL document CHEMBL1156959, “Potent ketoamide inhibitors of HCV NS3 protease derived from quaternized P1 groups” (Bioorg Med Chem Lett, 2010).

Columns and labels:
[1] = system: Hepatitis C virus; assay: Inhibition of Hepatitis C virus genotype 1 NS3 protease; format: functional
[2] = system: Hepatitis C virus; assay: Antiviral activity against Hepatitis C virus genotype 1 assessed as Inhibition of RNA replication transfected in human hepatoma cells; format: functional, Hepacivirus hominis

Row | Structure (SMILES) | Ki [1] [nM] | EC90 [2] [nM]
1 | CC[C@@H]1C[C@@]1(NC(=O)[C@@H]1[C@@H]2[C@H](CN1C(=O)[C@@H](NC(=O)N[C@H](CN1C(=O)CC(C)(C)CC1=O)C(C)(C)C)C(C)(C)C)C2(C)C)C(=O)C(N)=O | 0.058 | 1600
2 | CC(C)(C)[C@H](NC(=O)NC1(CS(=O)(=O)C(C)(C)C)CCCCC1)C(=O)N1C[C@H]2[C@@H]([C@H]1C(=O)NC1(C(=O)C(=O)NC3CC3)CC1)C2(C)C | 18 | –
3 | C[C@@H]1C[C@@]1(NC(=O)[C@@H]1[C@@H]2[C@H](CN1C(=O)[C@@H](NC(=O)NC1(CS(=O)(=O)C(C)(C)C)CCCCC1)C(C)(C)C)C2(C)C)C(=O)C(=O)NC1CC1 | 3 | –
4 | CC[C@@H]1C[C@@]1(NC(=O)[C@@H]1[C@@H]2[C@H](CN1C(=O)[C@@H](NC(=O)NC1(CS(=O)(=O)C(C)(C)C)CCCCC1)C(C)(C)C)C2(C)C)C(=O)C(=O)NC1CC1 | 0.11 | –
5 | CCC[C@@H]1C[C@@]1(NC(=O)[C@@H]1[C@@H]2[C@H](CN1C(=O)[C@@H](NC(=O)NC1(CS(=O)(=O)C(C)(C)C)CCCCC1)C(C)(C)C)C2(C)C)C(=O)C(=O)NC1CC1 | 0.7 | –
6 | CC(C)(C)[C@H](NC(=O)NC1(CS(=O)(=O)C(C)(C)C)CCCCC1)C(=O)N1C[C@H]2[C@@H]([C@H]1C(=O)NC1(C(=O)C(=O)NC3CC3)CCC1)C2(C)C | 15 | –
7 | CC[C@@H]1C[C@@]1(NC(=O)[C@@H]1[C@@H]2[C@H](CN1C(=O)[C@@H](NC(=O)N[C@H](CN1C(=O)CC(C)(C)CC1=O)C(C)(C)C)C(C)(C)C)C2(C)C)C(=O)C(=O)NC1CC1 | 0.082 | 500
8 | CC[C@@H]1C[C@@]1(NC(=O)[C@@H]1[C@@H]2[C@H](CN1C(=O)[C@@H](NC(=O)N[C@H](CN(C)S(C)(=O)=O)C(C)(C)C)C(C)(C)C)C2(C)C)C(=O)C(=O)NC1CC1 | 0.2 | 2700
9 | CC[C@@H]1C[C@@]1(NC(=O)[C@@H]1[C@@H]2[C@H](CN1C(=O)[C@@H](NC(=O)NC1([C@@H](C)S(=O)(=O)C(C)(C)C)CCCCC1)C1(C)CCCCC1)C2(C)C)C(=O)C(=O)NC1CC1 | 0.95 | –
10 | CC[C@@H]1C[C@@]1(NC(=O)[C@@H]1[C@@H]2[C@H](CN1C(=O)[C@@H](NC(=O)NC1([C@@H](C)S(=O)(=O)C(C)(C)C)CCCCC1)C1Cc3ccccc3C1)C2(C)C)C(=O)C(=O)NC1CC1 | 0.5 | –
11 | CC[C@@H]1C[C@@]1(NC(=O)[C@@H]1[C@@H]2[C@H](CN1C(=O)[C@@H](NC(=O)NC1(CS(=O)(=O)C(C)(C)C)CCCCC1)C1CCCCC1)C2(C)C)C(=O)C(=O)NC1CC1 | 0.6 | –
12 | CC[C@@H]1C[C@@]1(NC(=O)[C@@H]1[C@@H]2[C@H](CN1C(=O)[C@@H](NC(=O)N[C@H](CN1C(=O)CC(C)(C)CC1=O)C(C)(C)C)C1(C)CCCCC1)C2(C)C)C(=O)C(N)=O | 0.023 | 400
13 | CC[C@@H]1C[C@@]1(NC(=O)[C@@H]1[C@@H]2[C@H](CN1C(=O)[C@@H](NC(=O)NC1([C@@H](C)S(=O)(=O)C(C)(C)C)CCCCC1)C1(C)CCCCC1)C2(C)C)C(=O)C(N)=O | 0.015 | 400
14 | CC(C)(C)[C@H](NC(=O)NC1(CS(=O)(=O)C(C)(C)C)CCCCC1)C(=O)N1C[C@H]2[C@@H]([C@H]1C(=O)NC1(C(=O)C(=O)NC3CC3)CC(O)C1)C2(C)C (stereo partly drawn) | 89 | –
15 | CC1CC(NC(=O)[C@@H]2[C@@H]3[C@H](CN2C(=O)[C@@H](NC(=O)NC2(CS(=O)(=O)C(C)(C)C)CCCCC2)C(C)(C)C)C3(C)C)(C(=O)C(=O)NC2CC2)C1 (stereo partly drawn) | 0.42 | –
16 | CCC1CC(NC(=O)[C@@H]2[C@@H]3[C@H](CN2C(=O)[C@@H](NC(=O)NC2(CS(=O)(=O)C(C)(C)C)CCCCC2)C(C)(C)C)C3(C)C)(C(=O)C(=O)NC2CC2)C1 (stereo partly drawn) | 0.19 | –
17 | CC(C)(C)NC(=O)N[C@H](C(=O)N1C[C@H]2[C@@H]([C@H]1C(=O)NC(CC1CCC1)C(=O)C(N)=O)C2(C)C)C(C)(C)C (stereo partly drawn) [BOCEPREVIR] | 14 | 350
